In US3984548A, “Substituted pyrido[1,2,3,-de]-1,4-benzoxazines as bactericides” (Riker Laboratories, Inc., priority 1974, dated 1976):

How the values were obtained:
Type in all cases: cell-based
Set-up in all cases: key: +: active; -: inactive
Conditions in all cases: agar plates, 1 to 100 milligrams/liter
[1] = system: Mima polymorpha; test: standard plate dilution method, Mima polymorpha
Protocol: (§1) The culture medium employed permits susceptibility testing of fastidious microorganisms towards antibiotics, sulfonamides and other chemotherapeutic agents. Tryptone soy agar (oxoid) of the following composition is the culture medium. In the test procedure, the amount of a compound required to give complete inhibition or no inhibition of the microbial growth on the agar plates was determined. The compound selected for evaluation is added to the agar medium to give concentrations of one, ten and one hundred milligrams per liter. A series of plates with these concentrations is prepared. Plates containing agar alone are included as controls. Ten percent horse serum is added to one series of such plates. Aliquots of broth culture of each of nine species of microorganisms are innoculated onto the agar plates containing the various compound concentrations and onto the control plates. The plates are incubated at 37° C. in a 10 percent carbon dioxide atmosphere for 18 to 25 hours. The microbial growth on each plate is read visually, and minimal inhibitory concentrations are recorded.

[2] = system: Pseudmonas aeruginosa; test: standard plate dilution method, Pseudomonas aeruginosa
Protocol: as §1

[3] = system: Escherichia coli; test: standard plate dilution method, Escherichia coli
Protocol: as §1

[4] = system: Streptococcus Sp; test: standard plate dilution method, Streptococcus sp.
Protocol: as §1

[5] = system: Bacillus Subtilus; test: standard plate dilution method, Bacillus subtilus
Protocol: as §1

[6] = system: Herellea vaginicola; test: standard plate dilution method, Herellea vaginicola
Protocol: as §1

[7] = system: Staphylococcus aureus; test: standard plate dilution method, Staphylococcus aureus
Protocol: as §1

| SMILES | Microorganism MP (growth inhibition) [1] | Microorganism PA (growth inhibition) [2] | Microorganism EC (growth inhibition) [3] | Microorganism SS (growth inhibition) [4] | Microorganism BS (growth inhibition) [5] | Microorganism HV (growth inhibition) [6] | Microorganism SA (growth inhibition) [7] |
| --- | --- | --- | --- | --- | --- | --- | --- |
| CCOC(=O)c1cn2c3c(cc(C)cc3c1=O)OCC2C (centres unmarked) [Example 1, ethyl 2,3-dihydro-3,9-dimethyl-7-oxo-7H-pyrido[1,2,3-de]-1,4-benzoxazine-6-carboxylate] | - | - | + | - | + | + | + |
| CCOC(=O)c1cn2c3c(cc(Cl)cc3c1=O)OCC2C (centres unmarked) [Example 4, ethyl 9-chloro-2,3-dihydro-3-methyl-7-oxo-7H-pyrido[1,2,3-de]-1,4-benzoxazine-6-carboxylate] | - | - | + | - | + | + | + |
| CCOC(=O)c1cn2c3c(ccc(F)c3c1=O)OCC2C (centres unmarked) [Example 5, ethyl 2,3-dihydro-8-fluoro-3-methyl-7-oxo-7H-pyrido[1,2,3-de]-1,4-benzoxazine-6-carboxylate] | - | - | + | - | + | + | - |
| CCOC(=O)c1cn2c3c(cc(F)cc3c1=O)OCC2C (centres unmarked) [Example 6, ethyl 2,3-dihydro-9-fluoro-3-methyl-7-oxo-7H-pyrido[1,2,3-de]-1,4-benzoxazine-6-carboxylate] | - | + | + | - | + | + | + |
| Cc1cc2c3c(c1)c(=O)c(C(=O)O)cn3C(C)CO2 (centres unmarked) [Example 16, 2,3-dihydro-3,9-dimethyl-7-oxo-7H-pyrido[1,2,3-de]-1,4-benzoxazine-6-carboxylic acid] | - | - | + | + | + | + | + |
| CC1COc2ccc(Cl)c3c(=O)c(C(=O)O)cn1c23 (centres unmarked) [Example 17, 8-chloro-2,3-dihydro-3-methyl-7-oxo-7H-pyrido[1,2,3-de]-1,4-benzoxazine-6-carboxylic acid] | - | - | + | + | + | + | - |
| O=C(O)c1cn2c3c(cccc3c1=O)OCC2 [Example 18, 2,3-dihydro-7-oxo-7H-pyrido[1,2,3-de]-1,4-benzoxazine-6-carboxylic acid] | - | - | - | - | + | - | - |
| CC1COc2cccc3c(=O)c(C(=O)O)cn1c23 (centres unmarked) [Example 19, 2,3-dihydro-3-methyl-7-oxo-7H-pyrido[1,2,3-de]-1,4-benzoxazine-6-carboxylic acid] | - | - | + | - | + | + | + |
| COc1cc2c3c(c1)c(=O)c(C(=O)O)cn3C(C)CO2 (centres unmarked) [Example 20, 2,3-dihydro-9-methoxy-3-methyl-7-oxo-7H-pyrido[1,2,3-de]-1,4-benzoxazine-6-carboxylic acid] | - | - | + | - | + | + | + |
| CC1COc2c(F)ccc3c(=O)c(C(=O)O)cn1c23 (centres unmarked) [Example 21, 2,3-dihydro-10-fluoro-3-methyl-7-oxo-7H-pyrido[1,2,3-de]-1,4-benzoxazine-6-carboxylic acid] | - | - | + | + | + | + | + |
| CC1COc2c(Cl)ccc3c(=O)c(C(=O)O)cn1c23 (centres unmarked) [Example 22, 10-chloro-2,3-dihydro-3-methyl-7-oxo-7H-pyrido[1,2,3-de]-1,4-benzoxazine-6-carboxylic acid] | + | + | + | + | + | + | + |
| CC1COc2cc(Cl)cc3c(=O)c(C(=O)O)cn1c23 (centres unmarked) [Example 23, 9-chloro-2,3-dihydro-3-methyl-7-oxo-7H-pyrido[1,2,3-de]-1,4-benzoxazine-6-carboxylic acid] | - | - | + | + | + | + | + |
| CC1COc2cc(F)cc3c(=O)c(C(=O)O)cn1c23 (centres unmarked) [Example 24, 9-fluoro-2,3-dihydro-3-methyl-7-oxo-7H-pyrido[1,2,3-de]-1,4-benzoxazine-6-carboxylic acid] | - | + | + | + | + | + | + |
| CC1COc2ccc(F)c3c(=O)c(C(=O)O)cn1c23 (centres unmarked) [Example 25, 8-fluoro-2,3-dihydro-3-methyl-7-oxo-7H-pyrido[1,2,3-de]-1,4-benzoxazine-6-carboxylic acid] | - | - | + | + | + | + | - |
| Cc1ccc2c3c1c(=O)c(C(=O)O)cn3C(C)CO2 (centres unmarked) [Example 26, 8-methyl-2,3-dihydro-3-methyl-7-oxo-7H-pyrido[1,2,3-de]-1,4-benzoxazine-6-carboxylic acid] | - | - | + | + | + | + | + |
| Cc1c(Cl)cc2c(=O)c(C(=O)O)cn3c2c1OCC3C (centres unmarked) [Example 34 (acid)] | + | + | + | + | + | + | + |
| CCOC(=O)c1cn2c3c(c(C)c(Cl)cc3c1=O)OCC2C (centres unmarked) [Example 34 (ester)] | + | + | + | + | + | + | + |
| Cc1cc(Cl)c2c3c1c(=O)c(C(=O)O)cn3C(C)CO2 (centres unmarked) [Example 37 (acid)] | + | + | + | + | + | + | + |
| CCOC(=O)c1cn2c3c(c(Cl)cc(C)c3c1=O)OCC2C (centres unmarked) [Example 37 (ester)] | - | - | - | - | + | - | - |
| CC1COc2c(Cl)cc([N+](=O)[O-])c3c(=O)c(C(=O)O)cn1c23 (centres unmarked) [Example 38 (acid)] | - | - | + | - | + | + | + |
